One experiment has as its target Glutamate receptor 3 (Rattus norvegicus, UniProt P19492).
Experiment [1] has as its target Glutamate receptor ionotropic, NMDA 1 (Rattus norvegicus, UniProt P35439).
For experiment [2], the target named is Glutamate receptor ionotropic, kainate 1 (Rattus norvegicus, UniProt P22756).

Where “and” joins values, the source holds several entries; their conditions need not be identical. Equal entries are not always repeated. Some results are limits rather than exact numbers.

Glutamate receptor ionotropic, kainate 1, sequence (P22756 whole entry): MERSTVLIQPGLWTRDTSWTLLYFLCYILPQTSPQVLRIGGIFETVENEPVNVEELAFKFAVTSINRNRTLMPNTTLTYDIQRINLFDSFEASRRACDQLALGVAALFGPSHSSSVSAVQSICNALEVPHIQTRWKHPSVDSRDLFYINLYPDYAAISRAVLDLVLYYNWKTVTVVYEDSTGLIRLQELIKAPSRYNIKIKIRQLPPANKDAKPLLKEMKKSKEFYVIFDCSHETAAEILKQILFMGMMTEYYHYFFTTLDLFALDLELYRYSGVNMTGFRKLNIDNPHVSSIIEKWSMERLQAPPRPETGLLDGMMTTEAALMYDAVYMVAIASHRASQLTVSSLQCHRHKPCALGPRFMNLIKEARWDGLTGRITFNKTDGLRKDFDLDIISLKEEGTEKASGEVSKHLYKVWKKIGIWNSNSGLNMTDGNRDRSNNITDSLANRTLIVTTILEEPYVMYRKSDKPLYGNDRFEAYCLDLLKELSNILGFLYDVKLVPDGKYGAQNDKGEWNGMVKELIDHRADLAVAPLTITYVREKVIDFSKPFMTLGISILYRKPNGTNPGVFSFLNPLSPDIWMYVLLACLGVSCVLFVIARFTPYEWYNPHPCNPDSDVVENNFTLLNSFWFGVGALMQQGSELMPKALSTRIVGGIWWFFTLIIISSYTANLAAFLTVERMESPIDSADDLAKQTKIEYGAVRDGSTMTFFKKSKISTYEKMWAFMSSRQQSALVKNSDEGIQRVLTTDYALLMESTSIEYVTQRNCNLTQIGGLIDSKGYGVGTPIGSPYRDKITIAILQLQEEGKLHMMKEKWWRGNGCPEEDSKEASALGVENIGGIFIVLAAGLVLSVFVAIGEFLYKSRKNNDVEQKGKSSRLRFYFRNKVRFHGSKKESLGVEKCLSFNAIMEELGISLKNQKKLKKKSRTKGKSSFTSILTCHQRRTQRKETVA
Glutamate receptor 3, sequence (P19492 whole entry): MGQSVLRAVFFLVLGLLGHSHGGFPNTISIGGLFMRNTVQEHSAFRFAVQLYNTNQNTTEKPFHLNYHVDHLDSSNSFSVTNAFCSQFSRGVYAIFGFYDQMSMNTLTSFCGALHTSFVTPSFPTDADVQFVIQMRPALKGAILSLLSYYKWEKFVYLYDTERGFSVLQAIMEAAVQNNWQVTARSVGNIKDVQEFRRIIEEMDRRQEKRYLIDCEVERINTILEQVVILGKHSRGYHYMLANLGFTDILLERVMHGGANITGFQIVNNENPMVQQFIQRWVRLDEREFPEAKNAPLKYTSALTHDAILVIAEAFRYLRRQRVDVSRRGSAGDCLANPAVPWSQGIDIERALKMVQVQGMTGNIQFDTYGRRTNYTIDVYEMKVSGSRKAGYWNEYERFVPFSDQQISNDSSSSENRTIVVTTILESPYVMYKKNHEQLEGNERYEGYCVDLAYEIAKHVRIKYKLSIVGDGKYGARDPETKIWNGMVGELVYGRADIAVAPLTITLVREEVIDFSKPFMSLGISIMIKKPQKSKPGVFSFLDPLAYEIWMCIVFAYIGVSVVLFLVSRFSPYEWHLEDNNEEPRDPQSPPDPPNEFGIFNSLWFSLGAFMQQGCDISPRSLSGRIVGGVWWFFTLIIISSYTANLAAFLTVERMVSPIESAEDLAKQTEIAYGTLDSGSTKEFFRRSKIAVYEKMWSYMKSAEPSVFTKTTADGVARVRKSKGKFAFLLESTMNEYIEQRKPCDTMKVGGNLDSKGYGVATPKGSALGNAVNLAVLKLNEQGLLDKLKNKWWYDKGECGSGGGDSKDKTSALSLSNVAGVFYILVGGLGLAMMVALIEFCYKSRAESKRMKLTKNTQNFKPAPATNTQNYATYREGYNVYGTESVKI

For `Cc1onc(C(=O)O)c1CC(N)C(=O)O` [(S)-2-AMINO-3-(3-CARBOXY-5-METHYLISOXAZOL-4-YL)PROPIONIC ACID], the values for the inhibitory constant (Ki) (on Glutamate receptor 3; in experiment [1]; in experiment [2]) were 0.02 µM, more than 10 µM and 6.3 µM, respectively.
Turning to `Cc1onc(C(=O)O)c1C[C@H](N)C(=O)O`, the figures for the Ki (at Glutamate receptor 3; in experiment [1]; in experiment [2]) were 0.025 µM, more than 10 µM and 3.6 µM, respectively.
Regarding `N[C@@H](Cc1conc1C(=O)O)C(=O)O` [Demethyl-ACPA], the Ki at Glutamate receptor 3 is 0.039 µM and 0.1 µM; in experiment [1], more than 10 µM.
With `N[C@@H](Cc1conc1C(=O)O)C(=O)O` [(R)-Demethyl-ACPA], the inhibition constant Ki on Glutamate receptor 3 is 9.4 µM; in experiment [1], 4.5 µM; in experiment [2], more than 10 µM.
On to `Cc1onc(C(=O)O)c1C[C@@H](N)C(=O)O` [(R)-ACPA], for which the Ki in experiment [1] and in experiment [2] was more than 10 µM throughout.
On to `C[C@H](NC(=O)CNC(=O)[C@@H](NC(=O)[C@H](Cc1ccccc1)NC(=O)CNC(=O)CNC(=O)[C@@H](N)Cc1ccccc1)[C@@H](C)O)C(=O)N[C@@H](CCCN=C(N)N)C(=O)N[C@@H](CCCCN)C(=O)N[C@@H](CO)C(=O)N[C@@H](C)C(=O)N[C@@H](CCCN=C(N)N)C(=O)N[C@@H](CCCCN)C(N)=O` [OFQ/N (1-11),[Tyr10]], for which the figures for the Ki (on Glutamate receptor 3; in experiment [1]; in experiment [2]) were 0.27 µM, more than 10 µM and more than 10 µM, respectively.

As usually defined, the Ki is a dissociation constant, usually derived from enzyme kinetics or from competition with a known ligand.

(Values after BindingDB's records for doi:10.1002/chir.1172 (The Royal Danish School of Pharmacy, 2001).)
